# Data published in patent publication US6479456B1, “Antimicrobial perfume compositions” (Firmenich SA, priority 2000, dated 2002).
# System: Pityrosporum ovale
# Test: agar surface coating test (ASCT) against Pityrosporum ovale, in shampoo
# Type: cell-based
# Conditions: shampoo containing Octopirox compared with a shampoo without Octopirox
# Procedure: Whatever the chosen test according to the invention, a culture of the selected germ was set up on Petri dishes under the same test conditions in parallel with a control solution composed in general of sterilised water or of a saline solution. After the period(s) of incubation considered according to the selected test, the surface area of the dish which was free of bacteria and/or fungi was measured for both the tested compound and the control solution. By calculating a surface ratio, a relative surface value, enabling the selection of the compounds with an antimicrobial activity of at least 80% in one of these tests of effectiveness, was defined. The following germs were used in these methods: Pityrosporum ovale, Staphylococcus aureus, Staphylococcus epidermidis, Escherichia coli, Pseudomonas aeruginosa, Candida albicans, Trichophyton mentagrophytes. […]
# The tested product and the agar surface are again left in contact for 30 s under the same conditions as above, followed by the stage of rinsing and of 24-h incubation at ambient temperature, and the antimicrobial evolution is observed again after this second phase of the test. […] The microbicidal or microbiostatic action can be established after each phase of the test, and recorded. […]
smiles,measurement,value
"Cc1cc(CC(C)CC(C)(C)C)n(O)c(=O)c1.NCCO (stereo not shown) [Octopirox®, Piroctone olamine]",reduction of growth of P. ovale,60%
